“Also recorded” adds a separate entry of the source.
How the values were obtained:
P-JNK^Thr183/Tyr185 = experiment: Western blot for P-JNK in AML cell lines; format: cell-based; settings: all cell lines, 8 h, 10 nM and 100 nM
Description: (§1) Cells were harvested (4×10^6 for cell lines and 7×10^6 for L-AMLs) and washed 3 times with cold PBS (centrifuged at 4° C.). Lysis buffer was prepared with NP40 Cell Lysis Buffer (ThermoFisher Scientific), cOmplete protease inhibitor (Roche, 046993116001), PhosStop (Roche, 04906837001) and Pefablock (Roche, 11585916001) at the recommended concentrations. After the washes, cells were resuspended in 50 μL of lysis buffer, vortexed and incubated on ice for 30 min. Samples were vortexed every 10 min. After 30 min incubation, samples were centrifuged at 14,000 g at 4° C. for 10 min and supernatants were transferred to tubes. Protein was quantified using the DC Protein Assay kit (BioRad) per manufacturer's protocol. 50 μg of cell lines lysate or 20 μg of L-AML6 lysate were loaded for SDS-PAGE. Protein was transferred from the gels into PVDF membranes using a semi dry transfer apparatus (BioRad). […]
(§2) Once it was determined that this group of AML cell lines are highly sensitive to EX 1, the mechanism underlying this response was investigated. […]
(§3) Therefore, cells were treated with a range of doses of EX 1 for 8 h and 24 h, as described above, before protein extraction was performed. […] Noxa was readily detected in control lysate prepared from HEK293 cells.

Noxa = experiment: Western blot for Noxa in AML cell lines; format: cell-based; settings: six AML cell lines, 10 nM and 100 nM, 8 h
Description: as §1, §2, §3

HL-60 AML cell line = experiment: MTS proliferation assay, HL-60; format: cell-based
Description: The cell lines (MV4; 11 and HL-60) were plated in 96-well plates at 1×10^4 cells/well in 50 uL of complete growth media. Cells were plated in triplicate wells for each dose being tested. EX 1 (in DMSO), Oxi4503 (EndoTherm, Batch #EN09013, in water), CA4P (Selleckchem, Cat #S7204, in water) and Plinabulin (Selleckchem, Cat #S1176, in DMSO) was reconstituted immediately prior to use at 10 mM in appropriate diluent as indicated. The drug was prepared 2× concentrated in media and 50 uL added to respective wells (0.1% DMSO or water, final concentration). After 72 hours, 20 μL of CellTiter 96 AQueous One Solution reagent (Promega cat #G3581) was added to each well and the plate incubated for 2 h at 37° C. before absorbance was measured at 492 nm using a Thermo Multiskan Ascent96/384 Plate Reader.
To compare the efficacy of EX 1 with other tubulin polymerisation inhibitors, MTS proliferation assays were performed on MV4; 11 and HL-60 AML cell lines (Table 1). […] Cells were cultured with the compounds for 72 hours before viability was measured by the addition of CellTiter 96 AQueous One Solution reagent (Promega cat #G3581) and absorbance measured at 492 nm. IC50 was calculated using the absolute IC50 method in GraphPad Prism 6.

[1] = test system: chronic lymphocytic leukaemia (CLL) cells; settings: Bates et al. 2016; cited from earlier work

COc1cc(C(=O)c2c(C)oc3c(O)c(OC)ccc23)cc(OC)c1OC [EX 1, 2-Methyl-7-hydroxy-3-(3,4,5-trimethoxybenzoyl)-6-methoxybenzofuran]
P-JNK induction (P-JNK^Thr183/Tyr185): strongly induced in all cell lines; also recorded: induced in all cell lines
Noxa induction (Noxa): could only be detected in OCI-AML3 and ME1; also recorded: only observed in OCI-AML3 and ME1 lines
IC50 compared with Oxi4503, CA4P and Plinabulin (HL-60 AML cell line; HL-60, 72 h): lowest IC50
potency relative to any other VDAs (times more potent) (HL-60 AML cell line; HL-60, 72 h exposure): at least 10 times
apoptosis via P-JNK and Noxa [1]: induce apoptosis
